What follows are molecules tested against PHGDH (Homo sapiens (Human), UniProt O43175) (assay: PHGDH inhibition, coupled assay with PSAT1/PSPH and diaphorase/resazurin readout). Conditions: Table E9; mixture with PSAT1, PSPH; diaphorase/resazurin reporter.
Type: biochemical
Procedure: Compounds of the invention were assayed for inhibition of the activity phosphoglycerate dehydrogenase (PHGDH). The compounds were assayed in a mixture comprising PHGDH, PSAT1, PSPH, NADH, and glutamate. Diaphorase and resazurin were used as a fluorescent reporter system.
In this endogenous pathway coupled assay, the production of NADH by PHGDH was measured through the diaphorasemediated reduction of resazurin (See, e.g., Chakraborty, S., Sakka, M., Kimura, T. & Sakka, K. “Characterization of a dihydrolipoyl dehydrogenase having diaphorase activity of Clostridium kluyveri.” BioscL Biotechnol. Biochem. 72, 982-988 (2008)).
PHGDH assay buffer contained 50 mM TEA pH 8.0, 10 mM MgCl2, 0.05% BSA, and 0.01% Tween-20. PHGDH enzyme buffer consisted of assay buffer with 20 nM PHGDH and 0.2 mg/mL diaphorase. PHGDH substrate buffer contained 0.3 mM NAD 1.25 mM glutamate, 0.1 mM 3-phosphoglycerate, 0.2 mM resazurin, 1 μM PSAT1, and 1 μM PSPH. qHTS was performed in 1536-well plates dispensed with a BioRAPTR FRD. Each well contained equal volumes of substrate buffer and assay buffer. Plates were read at 0 minutes and 20 minutes at room temperature with a ViewLux uHTS Microplate Imager (PerkinElmer). Follow-up assays were performed in black 384-well plates (Greiner) in 20 μL of enzyme buffer to which compounds were added in dose-response with an HP D300 digital dispenser (Hewlett-Packard), followed by addition of 20 μL of substrate buffer. Plates were incubated at room temperature (25° C.) and read at 0 and 20 minutes with a Spectramax M5 plate reader (Molecular Devices) in fluorescence intensity mode with a λex=550 nm and λem=600 nm (emission cutoff=590 nm).

Chain of PHGDH (O43175 whole entry): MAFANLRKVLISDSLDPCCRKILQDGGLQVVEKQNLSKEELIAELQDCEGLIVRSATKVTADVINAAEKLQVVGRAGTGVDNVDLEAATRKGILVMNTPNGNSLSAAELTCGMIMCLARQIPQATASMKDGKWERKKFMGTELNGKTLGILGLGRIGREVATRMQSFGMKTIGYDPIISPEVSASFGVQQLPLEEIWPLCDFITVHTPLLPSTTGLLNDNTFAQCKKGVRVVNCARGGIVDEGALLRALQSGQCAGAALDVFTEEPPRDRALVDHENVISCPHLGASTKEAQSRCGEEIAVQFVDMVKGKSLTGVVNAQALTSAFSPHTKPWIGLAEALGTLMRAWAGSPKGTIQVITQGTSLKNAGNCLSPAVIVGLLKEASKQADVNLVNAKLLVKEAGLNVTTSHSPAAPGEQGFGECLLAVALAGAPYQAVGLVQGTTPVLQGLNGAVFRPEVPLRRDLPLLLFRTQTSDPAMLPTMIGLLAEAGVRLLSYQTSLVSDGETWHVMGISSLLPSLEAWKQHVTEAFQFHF

Row | SMILES | IC50
1 | FC(F)(F)c1cccc(N2CCN(C(=S)Nc3nccc4cccnc34)CC2)c1 [Compound 204] | 10 to 20 µM
2 | Cc1cc(C)nc(NC(=S)N2CCN(c3cc(C#N)cc(C#N)c3)CC2)c1 [Compound 205] | ≥ 20 µM
3 | Cc1cc(C)nc(NC(=S)N2CCN(c3ccc(F)c(F)c3F)CC2)c1 [Compound 208] | 10 to 20 µM
4 | Cc1cc(C)nc(NC(=S)N2CCN(c3ccc(C(F)(F)F)cc3C(F)(F)F)CC2)c1 [Compound 209] | 5 to 10 µM
5 | Cc1cc(C)nc(NC(=S)N2CCN(c3ccc(Cl)cc3C(F)(F)F)CC2)c1 [Compound 210] | 10 to 20 µM
6 | Cc1cc(C)nc(NC(=S)N2CCN(c3ccc(Cl)c(C(F)(F)F)c3)CC2)c1 [Compound 211] | 10 to 20 µM
7 | Cc1cc(C)nc(NC(=S)N2CCN(c3ccc(C(F)(F)F)cc3Cl)CC2)c1 [Compound 212] | 5 to 10 µM
8 | Cc1cc(C)cc(N2CCN(C(=S)Nc3cc(C)cc(C)n3)CC2)c1 [Compound 213] | 10 to 20 µM
9 | Cc1cc(C)nc(NC(=S)N2CCN(c3ccc(F)c(Cl)c3)CC2)c1 [Compound 215] | 5 to 10 µM
10 | Cc1cc(C)nc(NC(=S)N2CCN(c3ccc(Cl)cc3F)CC2)c1 [Compound 219] | 5 to 10 µM
11 | Cc1cc(C)nc(NC(=S)N2CCN(c3cc(Cl)c(Cl)cc3Cl)CC2)c1 [Compound 220] | ≥ 20 µM
12 | Cc1cc(C)nc(NC(=S)N2CCN(c3ccc(Cl)c(Cl)c3Cl)CC2)c1 [Compound 221] | ≥ 20 µM
13 | Cc1cc(C)nc(NC(=S)N2CC3CN(c4ccc(Cl)cc4C(F)(F)F)CC3C2)c1 (centres unmarked) [Compound 223] | 10 to 20 µM
14 | Cc1ccnc(NC(=S)N2CC3CN(c4ccc(Cl)cc4C(F)(F)F)CC3C2)c1 (centres unmarked) [Compound 224] | ≥ 20 µM
15 | S=C(Nc1cc(Cl)ccn1)N1CCN(c2cccc(Cl)c2Cl)CC1 [Compound 226] | 10 to 20 µM
16 | Cn1c(NC(=S)N2CCN(c3cccc(C(F)(F)F)c3)CC2)nc2ccccc21 [Compound 229] | 5 to 10 µM
17 | FC(F)(F)c1cccc(N2CCN(C(=S)Nc3nc(-c4ccccc4)c[nH]3)CC2)c1 [Compound 230] | < 5 µM
18 | Nc1nc(NC(=S)N2CCN(c3cccc(C(F)(F)F)c3)CC2)n[nH]1 [Compound 231] | ≥ 20 µM
19 | FC(F)(F)c1cccc(N2CCN(C(=S)Nc3nc[nH]n3)CC2)c1 [Compound 233] | 5 to 10 µM
20 | FC(F)(F)c1cccc(N2CCN(C(=S)Nc3cc[nH]n3)CC2)c1 [Compound 237] | ≥ 20 µM
21 | N=C(NC(=S)N1CCN(c2cccc(C(F)(F)F)c2)CC1)c1ccccn1 [Compound 238] | ≥ 20 µM
22 | Cc1ccc2nc(NC(=S)N3CCN(c4cccc(C(F)(F)F)c4)CC3)[nH]c2c1 [Compound 239] | 10 to 20 µM
23 | COc1ccc2nc(NC(=S)N3CCN(c4cccc(C(F)(F)F)c4)CC3)[nH]c2c1 [Compound 240] | ≥ 20 µM
24 | Cc1ccc2nc(NC(=S)N3CCN(c4cccc(C(F)(F)F)c4)CC3)[nH]c2c1 [Compound 242] | < 5 µM
25 | O=C(Nc1cccc([S+](=O)([O-])Nc2ccccc2F)c1)c1cccs1 [Compound 245] | ≥ 20 µM
26 | COc1ccccc1N[S+](=O)([O-])c1cc(NC(=O)Cc2ccc(Cl)cc2Cl)ccc1N1CCCC1 [Compound 248] | ≥ 20 µM

Row | SMILES | IC50
27 | COc1ccccc1N[S+](=O)([O-])c1cc(NC(=O)c2ccc3ccccc3n2)ccc1N1CCCC1 [Compound 249] | ≥ 20 µM
28 | Cc1cc(C)nc(NC(=S)N2CCC(Nc3cccc(C(F)(F)F)c3)CC2)c1 [Compound 250] | < 5 µM
29 | Cc1cc(C)nc(NC(=S)N2CCN(C3CCCCC3)CC2)c1 [Compound 253] | 10 to 20 µM
30 | Cc1cc(C)nc(NC(=S)N2CCC(Cc3ccccc3)CC2)c1 [Compound 254] | < 5 µM
31 | Cc1cc(C)nc(NC(=S)N2CCC(C(=O)N3CCOCC3)CC2)c1 [Compound 257] | ≥ 20 µM
32 | Cc1cc(C)nc(NC(=S)N2CCC(Nc3ccc(C(F)(F)F)cc3)CC2)c1 [Compound 258] | < 5 µM
33 | CCOC(=O)N1CCN(C(=S)Nc2cc(C)cc(C)n2)CC1 [Compound 259] | ≥ 20 µM
34 | Cc1cc(C)nc(NC(=S)N2CCC(C(=O)N3CCCCC3)CC2)c1 [Compound 260] | ≥ 20 µM
35 | Cc1cc(C)nc(NC(=S)N2CCN(C(=O)c3cccc(C(F)(F)F)c3)CC2)c1 [Compound 261] | 5 to 10 µM
36 | Cc1cc(C)nc(NC(=S)N2CCCC(NC(=O)c3cccc(C(F)(F)F)c3)C2)c1 (centres unmarked) [Compound 262, N-(1-((4,6-dimethylpyridin-2-yl)carbamothioyl)piperidin-3-yl)-3-(trifluoromethyl)benzamide] | < 5 µM
37 | Cc1cc(C)nc(NC(=S)N2CCC(NC(=O)c3cccc(C(F)(F)F)c3)CC2)c1 [Compound 263] | < 5 µM
38 | Cc1cc(C)nc(NC(=S)N2CCCC(NC(=O)c3ccc(C(F)(F)F)cc3)C2)c1 (centres unmarked) [Compound 264, N-(1-((4,6-dimethylpyridin-2-yl)carbamothioyl)piperidin-3-yl)-4-(trifluoromethyl)benzamide] | < 5 µM
39 | Cc1cc(C)nc(NC(=S)N2CCN(C(=O)c3ccc(C(F)(F)F)cc3)CC2)c1 [Compound 265] | < 5 µM
40 | Cc1cc(C)nc(NC(=S)N2CCC(CN3CCOCC3)CC2)c1 [Compound 270] | ≥ 20 µM
41 | Cc1cc(C)nc(NC(=S)N2CCN(Cc3ccc(C(F)(F)F)cc3)C(c3ccccc3)C2)c1 (centres unmarked) [Compound 273] | 10 to 20 µM
42 | Cc1cc(C)nc(NC(=S)N2CCN(Cc3ccccc3)CC2)c1 [Compound 274] | 10 to 20 µM
43 | Cc1cc(C)nc(NC(=S)N2CCN(Cc3ccc(C(F)(F)F)cc3)C(C)C2)c1 (centres unmarked) [Compound 275] | < 5 µM
44 | Cc1cc(C)nc(NC(=S)N2CCN(Cc3cccc(F)c3)CC2)c1 [Compound 277] | 10 to 20 µM
45 | Cc1cc(C)nc(NC(=S)N2CCN(Cc3ccccc3C(F)(F)F)CC2)c1 [Compound 278] | 10 to 20 µM
46 | Cc1cc(C)nc(NC(=S)N2CCN(Cc3ccc(F)cc3)CC2)c1 [Compound 279] | 10 to 20 µM
47 | Cc1cc(C)nc(NC(=S)N2CCN(Cc3ccc(Cl)cc3)CC2)c1 [Compound 280] | 10 to 20 µM
48 | Cc1cc(C)nc(NC(=S)N2CCN(Cc3ccc(Br)cc3)CC2)c1 [Compound 281] | 10 to 20 µM
49 | Cc1cc(C)nc(NC(=S)N2CCN(Cc3cccc(Br)c3)CC2)c1 [Compound 282] | 10 to 20 µM
50 | Cc1cc(C)nc(NC(=S)N2CCN(Cc3cccc(Cl)c3)CC2)c1 [Compound 284] | 10 to 20 µM
51 | Cc1cc(C)nc(NC(=S)N2CCN(Cc3ccccn3)CC2)c1 [Compound 287, N-(4,6-dimethylpyridin-2-yl)-4-(pyridin-2-ylmethyl)piperazine-1-carbothioamide] | ≥ 20 µM

Further lines, results first:

Row | IC50 | SMILES
52 | ≥ 20 µM | Cc1cc(C)nc(NC(=S)N2CCN(c3cc(Cl)c(Cl)c(Cl)c3)CC2)c1 [Compound 206]
53 | ≥ 20 µM | Cc1cc(C)nc(NC(=S)N2CCN(c3cc(Cl)cc(Cl)n3)CC2)c1 [Compound 207]
54 | 5 to 10 µM | Cc1cc(C)nc(NC(=S)N2CCN(c3ccc(F)c(F)c3)CC2)c1 [Compound 214]
55 | 10 to 20 µM | COc1cc(OC)cc(N2CCN(C(=S)Nc3cc(C)cc(C)n3)CC2)c1 [Compound 216]
56 | 10 to 20 µM | Cc1cc(C)nc(NC(=S)N2CCN(c3ccc([N+](=O)[O-])cc3Cl)CC2)c1 [Compound 217]
57 | 5 to 10 µM | Cc1cc(C)nc(NC(=S)N2CCN(c3ccc(Cl)cc3[N+](=O)[O-])CC2)c1 [Compound 218]
58 | ≥ 20 µM | Cc1nc(CN(C)c2ncnc3ccc(-c4ccc5[nH]ncc5c4)cc23)cs1 [Compound 222]
59 | 10 to 20 µM | Cc1cc(C)nc(NC(=S)N2CC3CN(c4ncc(C(F)(F)F)cc4Cl)CC3C2)c1 (centres unmarked) [Compound 225]
60 | 10 to 20 µM | Cc1ccnc(NC(=S)N2CC3CN(c4ncc(C(F)(F)F)cc4Cl)CC3C2)c1 (centres unmarked) [Compound 227]
61 | < 5 µM | FC(F)(F)c1cccc(N2CCN(C(=S)Nc3nc4ccccc4[nH]3)CC2)c1 [Compound 228]
62 | ≥ 20 µM | FC(F)(F)c1cccc(N2CCN(C(=S)Nc3nc[nH]n3)CC2)c1 [Compound 234]
63 | 5 to 10 µM | FC(F)(F)c1cccc(N2CCN(C(=S)Nc3cc[nH]n3)CC2)c1 [Compound 236]
64 | ≥ 20 µM | Cc1cc2nc(NC(=S)N3CCN(c4cccc(C(F)(F)F)c4)CC3)[nH]c2cc1C [Compound 241]
65 | < 5 µM | COc1ccc2nc(NC(=S)N3CCN(c4cccc(C(F)(F)F)c4)CC3)[nH]c2c1 [Compound 243]
66 | < 5 µM | Cc1cc2nc(NC(=S)N3CCN(c4cccc(C(F)(F)F)c4)CC3)[nH]c2cc1C [Compound 244]
67 | 5 to 10 µM | FC(F)(F)c1cccc(N2CCN(C(=S)Nc3nc4ccc(C(F)(F)F)cc4[nH]3)CC2)c1 [Compound 246]

Row | IC50 | SMILES
68 | < 5 µM | Cc1cccc2nc(NC(=S)N3CCN(c4cccc(C(F)(F)F)c4)CC3)[nH]c12 [Compound 247]
69 | < 5 µM | Cc1cc(C)nc(NC(=S)N2CCCC(Nc3cccc(C(F)(F)F)c3)C2)c1 (centres unmarked) [Compound 251]
70 | < 5 µM | Cc1cc(C)nc(NC(=S)N2CCCC(Nc3ccc(C(F)(F)F)cc3)C2)c1 (centres unmarked) [Compound 252]
71 | < 5 µM | Cc1cc(C)nc(NC(=S)N2CCN(CC3CCCCC3)CC2)c1 [Compound 255]
72 | ≥ 20 µM | Cc1cc(C)nc(NC(=S)N2CCN(CCN3CCCCC3)CC2)c1 [Compound 256]
73 | < 5 µM | Cc1cc(C)nc(NC(=S)N2CCC(NC(=O)c3ccc(C(F)(F)F)cc3)CC2)c1 [Compound 266]
74 | < 5 µM | Cc1cc(C)nc(NC(=S)N2CCN(CC(C)(C)C)CC2)c1 [Compound 269]
75 | ≥ 20 µM | Cc1cc(C)nc(NC(=S)N2CCC(CN3CCCCC3)CC2)c1 [Compound 271]
76 | ≥ 20 µM | Cc1cc(C)nc(NC(=S)N2CCN(Cc3ccccc3C)CC2)c1 [Compound 276]
77 | ≥ 20 µM | Cc1cc(C)nc(NC(=S)N2CCN(Cc3cccnc3)CC2)c1 [Compound 283]
78 | 10 to 20 µM | Cc1cc(C)nc(NC(=S)N2CCN(Cc3ccccc3Br)CC2)c1 [Compound 285]
79 | 10 to 20 µM | COc1ccccc1CN1CCN(C(=S)Nc2cc(C)cc(C)n2)CC1 [Compound 286]
80 | 10 to 20 µM | Cc1cc(C)nc(NC(=S)N2CCN(Cc3ccccc3F)CC2)c1 [Compound 288]
81 | 10 to 20 µM | Cc1cc(C)nc(NC(=S)N2CCN(Cc3ccccc3Cl)CC2)c1 [Compound 289]
82 | 10 to 20 µM | COc1cccc(CN2CCN(C(=S)Nc3cc(C)cc(C)n3)CC2)c1 [Compound 290]
83 | < 5 µM | Cc1cccc(CN2CCN(C(=S)Nc3cc(C)cc(C)n3)CC2)c1 [Compound 291]
